How the values were obtained:
[1] = tested on: VERPE; assay: Post-emergence action against VERPE, 1.28 kg/ha; format: in vivo, Veronica persica; conditions: dosage 1280 g/ha, visual rating about 3 weeks after treatment vs untreated controls (100% = plants died)
Method: (§1) • a) Seeds of mono- and dicotyledonous weed plants are placed in plastic pots in sandy loam soil (twin sowing with one species each of mono- or dicotyledonous weed plants per pot), covered with soil and cultivated in a greenhouse under controlled growth conditions. 2 to 3 weeks after sowing, the test plants are treated at the one-leaf stage. The compounds of the invention, formulated in the form of wettable powders (WP) or as emulsion concentrates (EC), are applied to the green parts of the plants as aqueous suspension or emulsion with addition of 0.5% additive at a water application rate equivalent to 600 litres per hectare. After the test plants have been kept in the greenhouse under optimum growth conditions for about 3 weeks, the activity of the preparations is rated visually in comparison to untreated controls. For example, 100% activity=the plants have died, 0% activity=like control plants. As shown by the results, compounds of the general formula (I) of the invention, in post-emergence treatment, have very good herbicidal efficacy (90% to 100% herbicidal action) against harmful plants such as Abutilon theophrasti, Digitaria sanguinalis, Echinochloa crus-galli, Matricaria inodora, Poa annua, at an application rate of 1.28 kg of active substance per hectare.

[2] = tested on: VERPE; assay: Pre-emergence action against VERPE, 1280 g/ha; format: in vivo, Veronica persica; conditions: scored visually after about 3 weeks vs untreated controls (100% = plants have died)
From the text: (§2) 1. Pre-Emergence Herbicidal Effect and Crop Plant Compatibility a) Seeds of mono- and dicotyledonous weed plants are placed in plastic pots in sandy loam soil (doubly sown with one species each of mono- or dicotyledonous weed plants per pot) and covered with soil. The compounds of the invention, formulated in the form of wettable powders (WP) or as emulsion concentrates (EC), are then applied onto the surface of the covering soil as aqueous suspension or emulsion with addition of 0.5% additive at a water application rate equivalent to 600 litres per hectare. After the treatment, the pots are placed in a greenhouse and kept under good growth conditions for the trial plants. After about 3 weeks, the effect of the preparations is scored visually in comparison with untreated controls as percentages. For example, 100% activity=the plants have died, 0% activity=like control plants. 1. Pre-Emergence Effectiveness Tables 1 to 12 below show the effects of selected compounds of the general formula (I) according to Tables 1 and 2 on various harmful plants and at an application rate corresponding to 1280 g/ha, which were obtained by the experimental procedure mentioned above.

[3] = tested on: POAAN; assay: Pre-emergence action against POAAN, 1280 g/ha; format: in vivo, Poa annua; conditions: visual scoring after about 3 weeks vs untreated controls, 100% = plants have died, 0% = like control plants
From the text: as §2

[4] = tested on: DIGSA; assay: Pre-emergence action against DIGSA, 1280 g/ha; format: in vivo, Digitaria sanguinalis; conditions: visual scoring after about 3 weeks vs untreated controls, 100% = plants have died, 0% = like control plants
From the text: as §2

[5] = tested on: DIGSA; assay: Post-emergence action against DIGSA, 1.28 kg/ha; format: in vivo, Digitaria sanguinalis; conditions: dosage 1280 g/ha, visual rating about 3 weeks after treatment vs untreated controls
Method: as §1

[6] = tested on: AMARE; assay: Pre-emergence action against AMARE, 1280 g/ha; format: in vivo, Amaranthus retroflexus; conditions: scored visually after about 3 weeks vs untreated controls (100% = plants have died)
From the text: as §2

[7] = tested on: MATIN; assay: Pre-emergence action against MATIN, 1280 g/ha; format: in vivo, Tripleurospermum inodorum (Matricaria inodora); conditions: scored visually after about 3 weeks vs untreated controls (100% = plants have died)
From the text: as §2

[8] = tested on: LOLRI; assay: Pre-emergence action against LOLRI, 1280 g/ha; format: in vivo, Lolium rigidum; conditions: visual scoring after about 3 weeks vs untreated controls, 100% = plants have died, 0% = like control plants
From the text: as §2

[9] = tested on: ALOMY; assay: Post-emergence action against ALOMY, 1.28 kg/ha; format: in vivo, Alopecurus myosuroides; conditions: dosage 1280 g/ha, visual rating about 3 weeks after treatment vs untreated controls
Method: as §1

[10] = tested on: STEME; assay: Pre-emergence action against STEME, 1280 g/ha; format: in vivo, Stellaria media; conditions: scored visually after about 3 weeks vs untreated controls (100% = plants have died)
From the text: as §2

[11] = tested on: MATIN; assay: Post-emergence action against MATIN, 1.28 kg/ha; format: in vivo, Tripleurospermum inodorum (Matricaria inodora); conditions: dosage 1280 g/ha, visual rating about 3 weeks after treatment vs untreated controls (100% = plants died)
Method: as §1

[12] = tested on: SETVI; assay: Pre-emergence action against SETVI, 1280 g/ha; format: in vivo, Setaria viridis; conditions: visual scoring after about 3 weeks vs untreated controls, 100% = plants have died, 0% = like control plants
From the text: as §2

[13] = tested on: AMARE; assay: Post-emergence action against AMARE, 1.28 kg/ha; format: in vivo, Amaranthus retroflexus; conditions: dosage 1280 g/ha, visual rating about 3 weeks after treatment vs untreated controls (100% = plants died)
Method: as §1

[14] = tested on: POAAN; assay: Post-emergence action against POAAN, 1.28 kg/ha; format: in vivo, Poa annua; conditions: dosage 1280 g/ha, visual rating about 3 weeks after treatment vs untreated controls
Method: as §1

[15] = tested on: ECHCG; assay: Pre-emergence action against ECHCG, 1280 g/ha; format: in vivo, Echinochloa crus-galli; conditions: visual scoring after about 3 weeks vs untreated controls, 100% = plants have died, 0% = like control plants
From the text: as §2

[16] = tested on: STEME; assay: Post-emergence action against STEME, 1.28 kg/ha; format: in vivo, Stellaria media; conditions: dosage 1280 g/ha, visual rating about 3 weeks after treatment vs untreated controls (100% = plants died)
Method: as §1

Structure (SMILES)	Post-emergence action against VERPE [1] [%]	Pre-emergence action against VERPE [2] [%]	Pre-emergence action against POAAN [3] [%]	Pre-emergence action against DIGSA [4] [%]	Post-emergence action against DIGSA [5] [%]	Pre-emergence action against AMARE [6] [%]	Pre-emergence action against MATIN [7] [%]	Pre-emergence action against LOLRI [8] [%]	Post-emergence action against ALOMY [9] [%]	Pre-emergence action against STEME [10] [%]	Post-emergence action against MATIN [11] [%]	Pre-emergence action against SETVI [12] [%]	Post-emergence action against AMARE [13] [%]	Post-emergence action against POAAN [14] [%]	Pre-emergence action against ECHCG [15] [%]	Post-emergence action against STEME [16] [%]
COC(=O)C(C)Oc1nn(-c2ccccc2)c(-c2ccc(C)nc2)c1Cl (centres unmarked) [VII-013]	100	100	100	90	90	–	–	–	–	–	–	–	–	–	–	–
COC(=O)C(C)Oc1nn(-c2ccccc2)c(-c2ccc(Cl)nc2)c1Cl (centres unmarked) [VII-017]	100	100	90	90	90	90	–	–	–	–	–	–	–	–	–	–
CCOC(=O)COc1nn(-c2ccccc2F)c(-c2ccc(F)nc2)c1SC [VII-021]	–	–	90	–	–	90	–	–	–	–	–	–	–	–	–	–
COC(=O)COc1nn(-c2ccccc2F)c(-c2ccc(OC)nc2)c1Br [VII-022]	90	90	–	–	–	–	–	–	–	–	–	–	–	–	–	–
CSc1c(OCC(=O)O)nn(-c2ccccc2F)c1-c1ccc(F)nc1 [VII-056]	90	–	90	100	90	90	90	90	100	90	100	90	100	100	–	–
CCOC(=O)COc1nn(-c2ccccc2F)c(-c2ccc(OCC)nc2)c1Br [VII-127]	–	–	–	–	–	–	–	–	–	90	–	–	–	–	–	–
CCOC(=O)COc1nn(-c2ccccc2F)c(-c2cnc(F)c(F)c2)c1Br [VII-148]	–	90	100	100	100	100	90	90	100	90	100	90	100	100	90	–
COC(=O)COc1nn(-c2cc(F)ccc2F)c(-c2ccnc(F)c2)c1C#N [VIII-008]	90	100	100	100	90	100	100	100	100	100	90	100	90	100	100	90

— patent US12180187B2, “1-phenyl-5-azinylpyrazolyl-3-oxyalkyl acids and their use for controlling unwanted plant growth” (BAYER AKTIENGESELLSCHAFT, priority 2019, dated 2024)
